This note sets out measurements from patent publication US20250354195A1, “METHOD OF SCREENING” (UNIVERSITY OF DUNDEE, priority 2024, published 2025).

This assay addresses T1, GSK3β (Homo sapiens, UniProt P49841+Q96SW2).
T1 construct: genetically engineered using CRISPR/Cas9 technology to endogenously tag GSK3p protein with HiBiT tag at the C-terminus; host or cells: HEK293 cells, CRISPR/Cas9 knock-in of HiBiT at the endogenous GSK3B locus
The experiment in a line: High throughput screening for GSK3β-HiBiT targeted degradation (Nano-Glo HiBiT Lytic luminescence). Type of assay: cell-based. The settings on record: HEK293 cells with endogenously HiBiT-tagged GSK3β, 24 h incubation, products of one-pot plate array (FIG. 1, Method A); for DC50: 0.01-30 μM, read-out: DC50 (half-maximal degradation concentration). Here is the method:
High throughput Screening for GSK3 β-HiBiTL: Test compounds were transferred into Echo plate (Beckman, 001-12782, Echo LDV384) using BRAVO automated liquid handling platform which serves as source plate (10 mM stocks in DMSO). Serial dilutions of the compounds were done using Echo550 liquid handler as 30 μM, 10 μM, 3 μM, 1 μM, 0.3 μM, 0.1 μM, 0.03 μM and 0.01 μM in final concentrations in assay plates. One column of each assay plate was reserved for DMSO control treatments. After compounds were serially diluted in assay plates, HEK293 cells (CRL-1573, ATCC) genetically engineered using CRISPR/Cas9 technology to endogenously tag GSK3p protein with HiBiT tag at the C-terminus (Schwinn et al., 2018, CRISPR-mediated tagging of endogenous proteins with a luminescent peptide, ACS Chem. Biol., 13(2), 467-74) were seeded at a density of 5000 cells/well in 50 μL complete media in 384-well TC-grade white plates (Perkin Elmer, Culturplate, 6007619) with the help of Multidrop Combi liquid dispenser and cells were incubated for 24 h with compounds at 37° C. in humidified incubators with 5% CO2. At the end of the treatment, equal volume of Nano-Glo HiBiT Lytic reagent (Promega N3030) supplied with Nano-Glo HiBiT Lytic substrate and LgBiT Protein were added into each well according to manufacturer's instructions, and cells were incubated on an orbital shaker for 15 seconds and for a further 15 minutes at room temperature. Luminescence signals were measured in an appropriate plate reader (PHERAstar FSX, BMG Labtech) (Dixon et al., 2016, NanoLuc complementation reporter optimized for accurate measurement of protein interactions in cells, ACS Chem. Biol., 11, 400-8). Changes in protein abundance upon compound treatment were further analysed by normalising raw luminescence values to DMSO values and fold changes were plotted using for parameter logistic regression with GraphPad Prism (10.1.2).
Furthermore, the present investigators have shown that bifunctional compounds manufactured using the method of the present disclosure may be effective in the uses of bifunctional compounds, for example as PROTACs in targeted protein degradation (TPD). […] GSK3p was targeted for degradation using a binder for GSK3p, and a binder for CRBN; the binders were comprised in molecules comprising moieties for reacting with the orthogonally reactive moieties of the linker. […] The “identifier” identifies the well of the multi-well plate that has been sampled, e.g., AHD2B-1-A1 relates to the top left well in FIG. 1. The DC50 provides an indication of the potency of the bifunctional compound in targeted degradation; Dmax provides an indication of the maximum possible degradation. The use of these metrics is further described in Flexible Fitting of PROTAC Concentration-Response Curves with Changepoint Gaussian Processes, Semenova et al., SLAS Discovery, 2021, 26, 1212-1224.

Each structure is given as a SMILES string.

T1 sequence (P49841 whole entry): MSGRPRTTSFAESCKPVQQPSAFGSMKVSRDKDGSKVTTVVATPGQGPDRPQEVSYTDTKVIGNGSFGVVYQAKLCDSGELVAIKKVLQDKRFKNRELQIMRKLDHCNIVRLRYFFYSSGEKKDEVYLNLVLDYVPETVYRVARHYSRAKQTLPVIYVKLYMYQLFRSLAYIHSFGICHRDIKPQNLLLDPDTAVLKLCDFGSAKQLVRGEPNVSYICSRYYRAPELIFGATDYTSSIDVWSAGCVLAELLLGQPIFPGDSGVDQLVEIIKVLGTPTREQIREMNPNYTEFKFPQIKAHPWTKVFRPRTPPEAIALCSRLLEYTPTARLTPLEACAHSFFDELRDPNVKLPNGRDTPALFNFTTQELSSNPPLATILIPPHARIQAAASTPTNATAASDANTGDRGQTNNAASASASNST
T1 sequence (Q96SW2 whole entry): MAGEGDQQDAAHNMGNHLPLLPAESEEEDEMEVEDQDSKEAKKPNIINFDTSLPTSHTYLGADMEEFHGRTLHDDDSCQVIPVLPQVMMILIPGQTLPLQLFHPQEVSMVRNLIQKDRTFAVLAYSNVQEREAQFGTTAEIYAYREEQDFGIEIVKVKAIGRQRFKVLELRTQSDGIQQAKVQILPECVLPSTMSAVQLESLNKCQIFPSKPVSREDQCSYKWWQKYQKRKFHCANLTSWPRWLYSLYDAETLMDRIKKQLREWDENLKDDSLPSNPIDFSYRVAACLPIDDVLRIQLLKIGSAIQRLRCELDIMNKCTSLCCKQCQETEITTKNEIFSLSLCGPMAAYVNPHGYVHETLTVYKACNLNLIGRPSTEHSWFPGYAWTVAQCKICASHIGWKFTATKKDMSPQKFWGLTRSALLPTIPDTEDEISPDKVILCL
T1 sequence (Q16531 whole entry partner): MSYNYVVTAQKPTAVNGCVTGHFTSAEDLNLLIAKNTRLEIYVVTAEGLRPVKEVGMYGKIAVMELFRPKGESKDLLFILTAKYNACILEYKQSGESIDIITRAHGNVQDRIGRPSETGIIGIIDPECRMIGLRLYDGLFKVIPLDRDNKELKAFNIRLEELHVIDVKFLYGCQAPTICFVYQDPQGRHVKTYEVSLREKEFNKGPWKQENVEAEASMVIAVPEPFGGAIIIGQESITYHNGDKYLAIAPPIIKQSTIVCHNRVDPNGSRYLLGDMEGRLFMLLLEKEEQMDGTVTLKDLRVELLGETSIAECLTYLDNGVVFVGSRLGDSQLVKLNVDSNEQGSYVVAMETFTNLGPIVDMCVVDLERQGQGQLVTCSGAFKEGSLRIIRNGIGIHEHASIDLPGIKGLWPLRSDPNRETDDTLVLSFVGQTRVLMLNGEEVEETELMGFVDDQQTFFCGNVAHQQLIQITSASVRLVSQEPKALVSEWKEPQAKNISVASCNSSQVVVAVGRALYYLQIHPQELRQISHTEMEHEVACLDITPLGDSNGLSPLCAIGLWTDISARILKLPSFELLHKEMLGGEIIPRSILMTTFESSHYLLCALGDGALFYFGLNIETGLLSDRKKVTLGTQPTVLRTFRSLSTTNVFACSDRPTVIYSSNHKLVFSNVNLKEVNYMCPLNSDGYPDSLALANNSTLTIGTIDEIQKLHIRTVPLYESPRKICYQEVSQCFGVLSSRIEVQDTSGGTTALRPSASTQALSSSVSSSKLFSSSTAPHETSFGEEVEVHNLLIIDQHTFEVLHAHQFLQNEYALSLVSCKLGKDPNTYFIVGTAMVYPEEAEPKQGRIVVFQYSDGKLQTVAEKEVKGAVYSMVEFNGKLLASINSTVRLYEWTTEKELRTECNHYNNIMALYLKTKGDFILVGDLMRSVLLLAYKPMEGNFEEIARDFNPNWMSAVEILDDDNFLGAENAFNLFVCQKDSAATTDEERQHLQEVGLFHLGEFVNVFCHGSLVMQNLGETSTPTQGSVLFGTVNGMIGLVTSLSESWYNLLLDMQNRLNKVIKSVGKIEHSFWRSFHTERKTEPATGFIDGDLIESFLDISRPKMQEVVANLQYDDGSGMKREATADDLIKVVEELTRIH

Turning to `COc1ccc(-c2ocnc2C(=O)NCCCn2cc(-c3ccc(CN4CCN(Cc5ccc6c(N7CCC(=O)NC7=O)nn(C)c6c5)CC4)cn3)nn2)cc1Cl` [AHD2B-1-D2], the DC50 was less than 0.25 µM and the “Dmax (maximal effect)” value was 63%.

With `COc1ccc(-c2ocnc2C(=O)NCCCn2cc(CCCOc3ccc(CN4CCN(Cc5ccc6c(N7CCC(=O)NC7=O)nn(C)c6c5)CC4)cc3)nn2)cc1Cl` [AHD2B-1-D4], the DC50 is less than 0.25 µM and the “Dmax (maximal effect)” value was found to be 41%.

As to `COc1ccc(-c2ocnc2C(=O)NCCCn2cc(COC3CCN(Cc4ccc5c(N6CCC(=O)NC6=O)nn(C)c5c4)CC3)nn2)cc1Cl` [AHD2B-1-D5], the DC50 was found to be 0.55 µM and the “Dmax (maximal effect)” value was 35%.

Consider `COc1ccc(-c2ocnc2C(=O)NCCCn2cc(CCCCN3CCN(Cc4ccc(C(=O)NC5CCC(=O)NC5=O)nc4)CC3)nn2)cc1Cl` (stereo not shown) [AHD2B-1-F1], for which the DC50 is greater than 10 µM and the “Dmax (maximal effect)” value is given as less than 30%.

For `COc1ccc(-c2ocnc2C(=O)NCCCn2cc(-c3ccc(CN4CCN(Cc5ccc(C(=O)NC6CCC(=O)NC6=O)nc5)CC4)cn3)nn2)cc1Cl` (stereo not shown) [AHD2B-1-F2], the DC50 is greater than 10 µM and the “Dmax (maximal effect)” value is on record as less than 30%.

Turning to `COc1ccc(-c2ocnc2C(=O)NCCCn2cc(COc3ccc(CN4CCN(Cc5ccc(C(=O)NC6CCC(=O)NC6=O)nc5)CC4)cc3)nn2)cc1Cl` (stereo not shown) [AHD2B-1-F3], the DC50 was greater than 10 µM and the “Dmax (maximal effect)” value is reported as less than 30%.

In the case of `COc1ccc(-c2ocnc2C(=O)NCCCn2cc(CCCOc3ccc(CN4CCN(Cc5ccc(C(=O)NC6CCC(=O)NC6=O)nc5)CC4)cc3)nn2)cc1Cl` (stereo not shown) [AHD2B-1-F4], the DC50 is 0.25 µM and the “Dmax (maximal effect)” value is 32%.

As for `COc1ccc(-c2ocnc2C(=O)NCCCn2cc(COC3CCN(Cc4ccc(C(=O)NC5CCC(=O)NC5=O)nc4)CC3)nn2)cc1Cl` (stereo not shown) [AHD2B-1-F5], the DC50 is greater than 10 µM and the “Dmax (maximal effect)” value is on record as less than 30%.

`COc1ccc(-c2ocnc2C(=O)NCCCn2cc(COc3ccc(CN4CCC5(C4)CN(Cc4ccc(C(=O)NC6CCC(=O)NC6=O)nc4)C5)cc3)nn2)cc1Cl` (stereo not shown) [AHD2B-1-F6]: the DC50 came to 1.1 µM and the “Dmax (maximal effect)” value stood at 34%.

As for `COc1ccc(-c2ocnc2C(=O)NCCCn2cc(CCCCCN3CCN(Cc4ccc(C(=O)NC5CCC(=O)NC5=O)nc4)CC3)nn2)cc1Cl` (stereo not shown) [AHD2B-1-F7], the DC50 was greater than 10 µM and the “Dmax (maximal effect)” value is given as less than 30%.

`COc1ccc(-c2ocnc2C(=O)NCCCn2cc(-c3cccc(CN4CCN(Cc5ccc(C(=O)NC6CCC(=O)NC6=O)nc5)CC4)n3)nn2)cc1Cl` (stereo not shown) [AHD2B-1-F8]: the DC50 is greater than 10 µM and the “Dmax (maximal effect)” value is recorded as less than 30%.

Take `COc1ccc(-c2ocnc2C(=O)NCCCn2cc(CCCCCN3CCCN(Cc4ccc(C(=O)NC5CCC(=O)NC5=O)nc4)CC3)nn2)cc1Cl` (stereo not shown) [AHD2B-1-F9]: the DC50 was greater than 10 µM and the “Dmax (maximal effect)” value is less than 30%.

With `COc1ccc(-c2ocnc2C(=O)NCCCn2cc(COCCOCCN3CCN(Cc4ccc(C(=O)NC5CCC(=O)NC5=O)nc4)CC3)nn2)cc1Cl` (stereo not shown) [AHD2B-1-F10], the DC50 is greater than 10 µM and the “Dmax (maximal effect)” value is on record as less than 30%.

Take `COc1ccc(-c2ocnc2C(=O)NCCCn2cc(COc3ccc(CN4CC5(C4)CN(Cc4ccc(C(=O)NC6CCC(=O)NC6=O)nc4)C5)cc3)nn2)cc1Cl` (stereo not shown) [AHD2B-1-F11]: the DC50 was greater than 10 µM and the “Dmax (maximal effect)” value is less than 30%.

In the case of `COc1ccc(-c2ocnc2C(=O)NCCCn2cc(CCCN3CCN(Cc4ccc(C(=O)NC5CCC(=O)NC5=O)nc4)CC3)nn2)cc1Cl` (stereo not shown) [AHD2B-1-F12], the DC50 was greater than 10 µM and the “Dmax (maximal effect)” value was less than 30%.

On to `COc1ccc(-c2ocnc2C(=O)NCCCn2cc(CCCCN3CCN(Cc4ccc(N5CCC(=O)NC5=O)cc4)CC3)nn2)cc1Cl` [AHD2B-1-G1], for which the DC50 is greater than 10 µM and the “Dmax (maximal effect)” value is recorded as less than 30%.

Turning to `COc1ccc(-c2ocnc2C(=O)NCCCn2cc(-c3ccc(CN4CCN(Cc5ccc(N6CCC(=O)NC6=O)cc5)CC4)cn3)nn2)cc1Cl` [AHD2B-1-G2], the DC50 is greater than 10 µM and the “Dmax (maximal effect)” value was less than 30%.

For the molecule `COc1ccc(-c2ocnc2C(=O)NCCCn2cc(COc3ccc(CN4CCN(Cc5ccc(N6CCC(=O)NC6=O)cc5)CC4)cc3)nn2)cc1Cl` [AHD2B-1-G3], the DC50 is greater than 10 µM and the “Dmax (maximal effect)” value was less than 30%.

Consider `COc1ccc(-c2ocnc2C(=O)NCCCn2cc(CCCOc3ccc(CN4CCN(Cc5ccc(N6CCC(=O)NC6=O)cc5)CC4)cc3)nn2)cc1Cl` [AHD2B-1-G4], for which the DC50 was greater than 10 µM and the “Dmax (maximal effect)” value is on record as less than 30%.

On to `COc1ccc(-c2ocnc2C(=O)NCCCn2cc(COC3CCN(Cc4ccc(N5CCC(=O)NC5=O)cc4)CC3)nn2)cc1Cl` [AHD2B-1-G5], for which the DC50 is greater than 10 µM and the “Dmax (maximal effect)” value is given as less than 30%.

Take `COc1ccc(-c2ocnc2C(=O)NCCCn2cc(COc3ccc(CN4CCC5(C4)CN(Cc4ccc(N6CCC(=O)NC6=O)cc4)C5)cc3)nn2)cc1Cl` [AHD2B-1-G6]: the DC50 is greater than 10 µM and the “Dmax (maximal effect)” value was less than 30%.

In the case of `COc1ccc(-c2ocnc2C(=O)NCCCn2cc(CCCCCN3CCN(Cc4ccc(N5CCC(=O)NC5=O)cc4)CC3)nn2)cc1Cl` [AHD2B-1-G7], the DC50 is greater than 10 µM and the “Dmax (maximal effect)” value is recorded as less than 30%.

For the molecule `COc1ccc(-c2ocnc2C(=O)NCCCn2cc(-c3cccc(CN4CCN(Cc5ccc(N6CCC(=O)NC6=O)cc5)CC4)n3)nn2)cc1Cl` [AHD2B-1-G8], the DC50 is greater than 10 µM and the “Dmax (maximal effect)” value is less than 30%.

Take `COc1ccc(-c2ocnc2C(=O)NCCCn2cc(CCCCCN3CCCN(Cc4ccc(N5CCC(=O)NC5=O)cc4)CC3)nn2)cc1Cl` [AHD2B-1-G9]: the DC50 was greater than 10 µM and the “Dmax (maximal effect)” value is less than 30%.

Regarding `COc1ccc(-c2ocnc2C(=O)NCCCn2cc(COCCOCCN3CCN(Cc4ccc(N5CCC(=O)NC5=O)cc4)CC3)nn2)cc1Cl` [AHD2B-1-G10], the DC50 is greater than 10 µM and the “Dmax (maximal effect)” value is given as less than 30%.

`COc1ccc(-c2ocnc2C(=O)NCCCn2cc(CCCN3CCN(Cc4ccc(N5CCC(=O)NC5=O)cc4)CC3)nn2)cc1Cl` [AHD2B-1-G12]: the DC50 was greater than 10 µM and the “Dmax (maximal effect)” value is reported as less than 30%.
